Data: patent US5258300A, “Method of inducing lysine overproduction in plants” (Molecular Genetics Research and Development Limited …, priority 1988, dated 1993)

What was measured:
[1] = test system: leaf disks from water control plant 101; experiment: Leaf disk AEC screen, water control plant 101; type: cell-based, Nicotiana tabacum SR1
Description: (§1) Plant tissue was initially screened for expression of the introduced dap A gene by evaluating resistance to the lysine analog S(2-aminoethyl)cysteine(AEC). AEC is a potent inhibitor of dihydrodipicolinic acid synthase of plants, but the bacterial DHDPS is much less sensitive to it. Leaf disks were prepared from surface-sterilized leaves as described in the transformation protocol. The disks were placed, (four disks per plate, two plates per treatment) on shooting medium supplemented with 1 mM L-arginine and AEC at 0, 0.1, 0.2 or 0.4 mM. Plates containing shooting medium supplemented with 75 μg/ml kanamycin were included for each plant tested to check the selectable marker. After one week at 26° C. in the light, the individual leaf disks were weighed and the average fresh weight and standard deviation were determined for each treatment.

[2] = test system: seedlings of self-pollinated 327; experiment: AEC resistance in seedlings, progeny of 327; type: in vivo, Nicotiana tabacum SR1; settings: Nicotiana tabacum, 336 h, two weeks postplating, read-out: Avg. Root Length
Description: (§2) Tobacco plant 327 flowered and was allowed to self-pollinate and produce seed. Mature, dry seed was collected, surface-sterilized with 10% bleach, and rinsed well with sterile water. Seeds were plated (50 seeds per plate, two plates per treatment) on gridded germination plates (1/4 MS salts, 2.5 gm/l Gelrite) containing AEC at 0, 1, 10, 30, 100 and 300 μM AEC. Seeds from self-pollinated 101 were treated identically as controls. All seeds germinated in 3-4 days. After 10 days, the number of green seedlings on each plate was counted. After two weeks, the seedlings were gently pulled from the Gelrite and root lengths were measured.

[3] = test system: leaf disks from plant 327; experiment: Leaf disk AEC screen, dap A+ plant 327; type: cell-based, Nicotiana tabacum SR1
Description: as §1

[4] = test system: seedlings of self-pollinated 101; experiment: AEC resistance in seedlings, progeny of 101; type: in vivo, Nicotiana tabacum SR1; settings: Nicotiana tabacum, 336 h, two weeks postplating, read-out: Avg. Root Length
Description: as §2

[5] = test system: Dihydrodipicolinic acid synthase; settings: in vitro; cited from earlier work
[6] = target: T1, DHDP synthase activity in NT-SR1 leaves (Nicotiana tabacum, UniProt Q42948); experiment: DHDP synthase activity (o-aminobenzaldehyde assay) in leaf extracts of seed-grown NT-SR1; type: biochemical; settings: NT-SR1 leaf extract
T1 construct: Young leaves of 327 and seed-grown NT-SR1 plants were extracted as follows; from tissue; host or cells: young leaves of seed-grown NT-SR1 plants, 40-66% ammonium sulfate fraction of the leaf extract
T1 sequence (Q42948 34-359): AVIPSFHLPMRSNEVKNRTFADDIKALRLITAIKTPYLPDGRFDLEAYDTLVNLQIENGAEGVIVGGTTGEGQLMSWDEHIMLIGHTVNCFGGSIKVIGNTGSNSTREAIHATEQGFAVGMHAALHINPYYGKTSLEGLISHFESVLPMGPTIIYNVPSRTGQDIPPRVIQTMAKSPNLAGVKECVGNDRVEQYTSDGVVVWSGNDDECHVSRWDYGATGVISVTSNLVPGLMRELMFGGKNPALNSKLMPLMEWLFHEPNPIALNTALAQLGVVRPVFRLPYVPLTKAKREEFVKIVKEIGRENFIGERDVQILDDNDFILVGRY
Description: (§3) Young leaves of 327 and seed-grown NT-SR1 plants were extracted as follows. One to two grams of deribbed leaves were ground at 4° C. in 2 ml extraction buffer (0.1M potassium phosphate (pH 7.5 at 4° C.), 2 mM EDTA, 1 mM β-mercaptoethanol, 10 mM sodium pyruvate) in the presence of 0.14 gm polyvinylpyrrolidone per gram of tissue. The extract was filtered through Miracloth (Calbiochem) and then centrifuged for 10 minutes at 8000×g (4° C.). The supernatant was slowly brought to 40% saturation by adding finely ground solid ammonium sulfate at 4° C. with gentle stirring. The precipitate was removed by centrifugation. The supernatant was brought to 66% ammonium sulfate saturation and the 40-66% precipitate was collected by centrifugation as before. The pellet was resuspended in column buffer (50 mM Tris-HCl (pH 7.5 at 4° C.), 1 mM EDTA, 10 mM sodium pyruvate, 10% glycerol) and passed through a Sephadex G-25 column (Sigma) to desalt.
(§4) Protein concentrations were determined by the dye-binding method of Bradford (REF) using bovine serum albumin fraction V powder in distilled water as the standard.
(§5) Dihydrodipicolinic acid synthase activity was monitored using the o-aminobenzaldehyde (ABA) assay (Yugari et al., J. Biol. Chem., 240, 4710-4716 (1965)). […] The pink color was allowed to develop for one hour at 25° C. and then the optical density was measured at 520 nm.

[7] = test system: DHDP synthase activity in the leaves of 327; experiment: DHDP synthase activity (o-aminobenzaldehyde assay) in leaf extracts of 327; type: biochemical, Nicotiana tabacum SR1 (E. coli dap A gene); settings: 327 leaf extract
Description: as §3, §4, §5

NCCSCC(N)C(=O)O (stereo not drawn) [AEC, S(2-aminoethyl)cysteine]
activity at 100 µM ([1]; Nicotiana tabacum, foliar, 168 h, AEC 0.1 mM, plant 101 leaf disks, after one week, read-out: Fresh Weight): 32% | activity at 200 µM ([1]; Nicotiana tabacum, foliar, 168 h, AEC 0.2 mM, plant 101 leaf disks, after one week, read-out: Fresh Weight): 15% | activity at 400 µM ([1]; Nicotiana tabacum, foliar, 168 h, AEC 0.4 mM, plant 101 leaf disks, after one week, read-out: Fresh Weight): 10% | Leaf disk growth in the presence of AEC ([1]; control plants): strongly inhibited | Leaf disk appearance ([1]; control plants, medium containing at least 0.2 mM AEC): brown and shriveled | activity at 1 µM ([2]; AEC 1 μM): 111% | activity at 3 µM ([2]; AEC 3 μM): 87% | activity at 10 µM ([2]; AEC 10 μM): 51% | activity at 30 µM ([2]; AEC 30 μM): 46% | activity at 100 µM ([2]; AEC 100 μM): 21% | activity at 100 µM ([3]; Nicotiana tabacum, foliar, 168 h, AEC 0.1 mM, plant 327 leaf disks, after one week, read-out: Fresh Weight): 88% | activity at 200 µM ([3]; Nicotiana tabacum, foliar, 168 h, AEC 0.2 mM, plant 327 leaf disks, after one week, read-out: Fresh Weight): 81% | activity at 400 µM ([3]; Nicotiana tabacum, foliar, 168 h, AEC 0.4 mM, plant 327 leaf disks, after one week, read-out: Fresh Weight): 71% | Leaf disk growth in the presence of AEC ([3]; putative dap A+ plants): remain green and growing | activity at 1 µM ([4]; AEC 1 μM): 46% | activity at 3 µM ([4]; AEC 3 μM): 33% | activity at 10 µM ([4]; AEC 10 μM): 27% | activity at 30 µM ([4]; AEC 30 μM): 18% | activity at 100 µM ([4]; AEC 100 μM): 0%

NCCCC[C@H](N)C(=O)O [L-lysine]
Lower sensitivity of E. coli DHDPS to inhibition by lysine compared to the same enzyme from plants [5]: at least 200 fold | inhibition at 100 µM ([6]; 100 μM L-lysine): 87% | Inhibition of DHDP synthase activity ([6]; 500 μM L-lysine): no activity could be detected | Inhibition of DHDP synthase activity ([7]; 100 μM L-lysine): completely resistant | Inhibition of DHDP synthase activity ([7]; 500 μM L-lysine): 14%
